Data on 48 compounds can be found in US8431704B2, “Quinoline or isoquinoline substituted P2X7 antagonists” (Janssen Pharmaceutica NV, priority 2008, dated 2013).

SMILES strings stand for the structures.

This experiment addresses T1, P2X7 (Homo sapiens, UniProt Q99572).
T1 construct: endogenous in cells; host or cells: THP-1 human monocytic cell line
T1 sequence (Q99572 1-595): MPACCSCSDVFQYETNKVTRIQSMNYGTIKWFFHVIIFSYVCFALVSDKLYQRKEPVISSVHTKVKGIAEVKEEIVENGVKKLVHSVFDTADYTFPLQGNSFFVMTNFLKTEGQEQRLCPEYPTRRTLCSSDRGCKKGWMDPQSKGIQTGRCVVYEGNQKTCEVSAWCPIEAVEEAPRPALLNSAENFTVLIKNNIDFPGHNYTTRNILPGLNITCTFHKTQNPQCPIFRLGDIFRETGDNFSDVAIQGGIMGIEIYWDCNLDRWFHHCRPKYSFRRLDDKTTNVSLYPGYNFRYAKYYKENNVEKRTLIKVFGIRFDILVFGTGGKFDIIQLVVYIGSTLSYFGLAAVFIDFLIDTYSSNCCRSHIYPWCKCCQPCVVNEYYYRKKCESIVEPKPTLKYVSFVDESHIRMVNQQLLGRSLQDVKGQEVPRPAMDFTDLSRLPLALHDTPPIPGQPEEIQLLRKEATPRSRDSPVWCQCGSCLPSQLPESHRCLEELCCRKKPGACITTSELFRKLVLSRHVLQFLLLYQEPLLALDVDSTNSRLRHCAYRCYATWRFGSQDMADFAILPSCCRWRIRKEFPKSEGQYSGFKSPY
Nature of the experiment: THP-1 YoPro uptake assay (BzATP-stimulated Yo-Pro-1 uptake). Particulars: Table F-10, THP-1 cells, read-out: mean pIC50 values for P2X7 antagonism (converted). Type of experiment: cell-based. On the procedure: The human monocytic cell line THP-1 was grown as a suspension culture in RPMI medium supplemented with 10% fetal bovine serum, penicillin/streptomycin (50 units/mL), 2 mM L-glutamine, and 20 μM 2-mercaptoethanol. Cells were maintained at a density below 0.5 million per mL. On the day of the assay, cells were washed twice with assay buffer, and then resuspended at 2 million per mL in assay buffer containing 2 μM Yo-Pro-1 (Invitrogen). The assay buffer contained (in mM): 280 sucrose, 5 KCl, 10 glucose, 10 HEPES, 5 N-methyl-D-glucamine. The cells were added at 200 k/well into poly-D-lysine-coated black-walled 96-well plates (Biocoat, Becton-Dickinson). Test compounds were dissolved in DMSO, and then added at the test concentration to each well of the 96-well plate. Concentration dependence of block was determined by exposing each well of cells in duplicate rows of a 96-well plate to a serial dilution of test compound. The concentration series usually started at 10 μM with a three-fold decrement in concentration. The final DMSO concentration seen by the cells was less than 0.5%. Cells were incubated with test compounds for 30 minutes at 37° C. A background reading was taken using a Gemini SpectraMax with 490 nm excitation and 530 nm emission. […] After incubation for 60 minutes at 37° C., an endpoint read was taken in the SpectraMax plate reader. The amount of block of the response was determined by comparing the fluorescence intensity in each well to the average of control wells on each plate. The control wells contained either a known antagonist of P2X7 (positive controls) or a concentration of DMSO equal to that in the test wells. Data were analyzed using a nonlinear regression program (Origin, OriginLab, MA). Results are reported as the −log of the IC50 (pIC50).
Turning to `O=C(NCC(c1cnc(C(F)(F)F)nc1)N1CCOCC1)c1c(Cl)ccc2nc(N3CCOCC3)ccc12` (stereo not drawn) [Compound 502], the IC50 is 13.8 nM.

As to `C[C@@H]1CN(c2ccc3c(C(=O)NCC(c4cnc(C(F)(F)F)nc4)N4CCOCC4)c(Cl)ccc3n2)C[C@H](C)O1` (stereo partly drawn) [Compound 503], the IC50 is 37.2 nM.

For the compound `O=C(NCC(c1cnc(C(F)(F)F)nc1)N1CCOCC1)c1c(Cl)ccc2nc(N3CCNCC3)ccc12` (stereo not drawn) [Compound 504], the IC50 is 6.92 nM.

Take `CN1CCN(c2ccc3c(C(=O)NCC(c4cnc(C(F)(F)F)nc4)N4CCOCC4)c(Cl)ccc3n2)CC1` (stereo not drawn) [Compound 505]: the IC50 was 5.13 nM.

In the case of `O=C(NCC(c1cnc(C(F)(F)F)nc1)N1CCOCC1)c1c(Cl)ccc2nc(N3CC[C@H](O)C3)ccc12` (stereo partly drawn) [Compound 506], the IC50 was 18.2 nM.

On to `O=C(NCC(c1cnc(C(F)(F)F)nc1)N1CCC(F)(F)CC1)c1c(Cl)ccc2nc(NCC3CC3)ccc12` (stereo not drawn) [Compound 507], for which the IC50 was 13.5 nM.

Consider `O=C(NCC(c1cnc(C(F)(F)F)nc1)N1CCC(F)(F)CC1)c1c(Cl)ccc2nc(NCC(O)CO)ccc12` (stereo not drawn) [Compound 508], for which the IC50 was 25.7 nM.

As for `O=C(NCC(c1cnc(C(F)(F)F)nc1)N1CCC(F)(F)CC1)c1c(Cl)ccc2nc(N3CC(O)(C(F)(F)F)C3)ccc12` (stereo not drawn) [Compound 509], the IC50 is 17.8 nM.

`O=C(NCC(c1cnc(C(F)(F)F)nc1)N1CCC(F)(F)CC1)c1c(Cl)ccc2nc(N3CC(CO)C3)ccc12` (stereo not drawn) [Compound 510]: the IC50 was 3.47 nM.

Turning to `CN(CCN)c1ccc2c(C(=O)NCC(c3cnc(C(F)(F)F)nc3)N3CCC(F)(F)CC3)c(Cl)ccc2n1` (stereo not drawn) [Compound 511], the IC50 was 4.79 nM.

In the case of `NC1CN(c2ccc3c(C(=O)NCC(c4cnc(C(F)(F)F)nc4)N4CCOCC4)c(Cl)ccc3n2)C1` (stereo not drawn) [Compound 512], the IC50 was 5.37 nM.

In the case of `O=C(NCC(c1cnc(C(F)(F)F)nc1)N1CCC(F)(F)CC1)c1c(Cl)ccc2nc(NCCN3CCOCC3)ccc12` (stereo not drawn) [Compound 513], the IC50 was 5.13 nM.

As to `O=C(NCC(c1cnc(C(F)(F)F)nc1)N1CCOCC1)c1c(Cl)ccc2nc(NCCNCCO)ccc12` (stereo not drawn) [Compound 514], the IC50 is 7.59 nM.

For `O=C(NCC(c1cnc(C(F)(F)F)nc1)N1CCC(F)(F)CC1)c1c(Cl)ccc2nc(N3CCC(c4n[nH]c(=O)[nH]4)CC3)ccc12` (stereo not drawn) [Compound 515], the IC50 was 5.62 nM.

For `CC1(O)CCN(c2ccc3c(C(=O)NCC(c4cnc(C(F)(F)F)nc4)N4CCOCC4)c(Cl)ccc3n2)CC1` (stereo not drawn) [Compound 516], the IC50 was 9.77 nM.

As for `CNCCN(C)c1ccc2c(C(=O)NCC(c3cnc(C(F)(F)F)nc3)N3CCC(F)(F)CC3)c(Cl)ccc2n1` (stereo not drawn) [Compound 517], the IC50 was 8.51 nM.

Consider `O=C(NCC(c1cnc(C(F)(F)F)nc1)N1CCC(F)(F)CC1)c1c(Cl)ccc2nc(N3CCC(n4cn[nH]c4=O)CC3)ccc12` (stereo not drawn) [Compound 518], for which the IC50 is 10.2 nM.

For `O=C(NCC(c1cnc(C(F)(F)F)nc1)N1CCOCC1)c1c(Cl)ccc2nc(N3CCC4(CCCN4)C3)ccc12` (stereo not drawn) [Compound 519], the IC50 is 7.08 nM.

Consider `O=C(NCC(c1cnc(C(F)(F)F)nc1)N1CCOCC1)c1c(Cl)ccc2nc(N3CCC4(CCCCN4)C3)ccc12` (stereo not drawn) [Compound 520], for which the IC50 was 9.55 nM.

As for `NCC1CCN(c2ccc3c(C(=O)NCC(c4cnc(C(F)(F)F)nc4)N4CCOCC4)c(Cl)ccc3n2)CC1` (stereo not drawn) [Compound 521], the IC50 was 13.8 nM.

`CNC1CN(c2ccc3c(C(=O)NCC(c4cnc(C(F)(F)F)nc4)N4CCOCC4)c(Cl)ccc3n2)C1` (stereo not drawn) [Compound 522]: the IC50 was 24.5 nM.

With `CN(CCN)c1ccc2c(C(=O)NCC(c3cnc(C(F)(F)F)nc3)N3CCOCC3)c(Cl)ccc2n1` (stereo not drawn) [Compound 523], the IC50 was 15.8 nM.

As to `O=C(NCC(c1cnc(C(F)(F)F)nc1)N1CCOCC1)c1c(Cl)ccc2nc(N3CC4(CNC4)C3)ccc12` (stereo not drawn) [Compound 524], the IC50 is 30.2 nM.

For the compound `O=C(NCC(c1cnc(C(F)(F)F)nc1)N1CCOCC1)c1c(Cl)ccc2nc(N3CC4COCC4C3)ccc12` (stereo not drawn) [Compound 525], the IC50 was 52.5 nM.

Consider `O=C(NCC(c1cnc(C(F)(F)F)nc1)N1CCOCC1)c1c(Cl)ccc2nc(N3C[C@@H]4C[C@H]3CO4)ccc12` (stereo partly drawn) [Compound 526], for which the IC50 is 56.2 nM.

As for `O=C(NCC(c1cnc(C(F)(F)F)nc1)N1CCOCC1)c1c(Cl)ccc2nc(NCC3CCOCC3)ccc12` (stereo not drawn) [Compound 527], the IC50 is 77.6 nM.

In the case of `NCC1CCN(c2ccc3c(C(=O)NCC(c4cnc(C(F)(F)F)nc4)N4CCC(F)(F)CC4)c(Cl)ccc3n2)CC1` (stereo not drawn) [Compound 528], the IC50 is 4.57 nM.

As for `O=C(NCC(c1cnc(C(F)(F)F)nc1)N1CCC(F)(F)CC1)c1c(Cl)ccc2nc(N3CCC4(CCCCN4)C3)ccc12` (stereo not drawn) [Compound 529], the IC50 is 5.62 nM.

Take `O=C(NCC(c1cnc(C(F)(F)F)nc1)N1CCC(F)(F)CC1)c1c(Cl)ccc2nc(N3C[C@@H]4C[C@H]3CO4)ccc12` (stereo partly drawn) [Compound 530]: the IC50 is 2.63 nM.

Consider `O=C(NCC(c1cnc(C(F)(F)F)nc1)N1CCC(F)(F)CC1)c1c(Cl)ccc2nc(N3CCC4(CCCN4)C3)ccc12` (stereo not drawn) [Compound 531], for which the IC50 is 3.02 nM.

On to `NCCNc1ccc2c(C(=O)NCC(c3cnc(C(F)(F)F)nc3)N3CCCCC3)c(Cl)ccc2n1` (stereo not drawn) [Compound 545], for which the IC50 is 1.45 nM.

For `O=C(NCC(c1cnc(C(F)(F)F)nc1)N1CCCCC1)c1c(Cl)ccc2nc(N3CCC(O)CC3)ccc12` (stereo not drawn) [Compound 546], the IC50 was 4.79 nM.

Consider `O=C(NCC(c1cnc(C(F)(F)F)nc1)N1CCCCC1)c1c(Cl)ccc2nc(NCCO)ccc12` (stereo not drawn) [Compound 547], for which the IC50 was 3.47 nM.

`O=C(NCC(c1cnc(C(F)(F)F)nc1)N1CCCCC1)c1c(Cl)ccc2nc(N3CCOCC3)ccc12` (stereo not drawn) [Compound 548]: the IC50 is 1.91 nM.

With `O=C(NCC(c1cnc(C(F)(F)F)nc1)N1CCCCC1)c1c(Cl)ccc2nc(N3CCNCC3)ccc12` (stereo not drawn) [Compound 549], the IC50 was 3.39 nM.

Take `O=C(NCC(c1cnc(C(F)(F)F)nc1)N1CCCCC1)c1c(Cl)ccc2nc(NCC(O)CO)ccc12` (stereo not drawn) [Compound 550]: the IC50 was 2.34 nM.

Consider `CS(=O)(=O)N[C@H]1CCN(c2ccc3c(C(=O)NCC(c4cnc(C(F)(F)F)nc4)N4CCOCC4)c(Cl)ccc3n2)C1` (stereo partly drawn) [Compound 551], for which the IC50 was 14.8 nM.

Regarding `CS(=O)(=O)N[C@@H]1CCN(c2ccc3c(C(=O)NCC(c4cnc(C(F)(F)F)nc4)N4CCOCC4)c(Cl)ccc3n2)C1` (stereo partly drawn) [Compound 552], the IC50 was 17.8 nM.

Take `CS(=O)(=O)NCCNc1ccc2c(C(=O)NCC(c3cnc(C(F)(F)F)nc3)N3CCOCC3)c(Cl)ccc2n1` (stereo not drawn) [Compound 553]: the IC50 is 17.4 nM.

Regarding `O=C(NCC(c1cnc(C(F)(F)F)nc1)N1CCOCC1)c1c(Cl)ccc2nc(NC3CCOCC3)ccc12` (stereo not drawn) [Compound 554], the IC50 is 12.6 nM.

With `CC(=O)NC1CC2CCC(C1)N2c1ccc2c(C(=O)NCC(c3cnc(C(F)(F)F)nc3)N3CCOCC3)c(Cl)ccc2n1` (stereo not drawn) [Compound 555], the IC50 is 16.2 nM.

As for `CN[C@H]1CCN(c2ccc3c(C(=O)NCC(c4cnc(C(F)(F)F)nc4)N4CCOCC4)c(Cl)ccc3n2)C1` (stereo partly drawn) [Compound 556], the IC50 was 1.15 nM.

`NCCNc1ccc2c(C(=O)NCC(c3cnc(C(F)(F)F)nc3)N3CCOCC3)c(Cl)ccc2n1` (stereo not drawn) [Compound 557]: the IC50 is 1.12 nM.

For `O=C(NCC(c1cnc(C(F)(F)F)nc1)N1CCOCC1)c1c(Cl)ccc2nc(N3CC4CNCC4C3)ccc12` (stereo not drawn) [Compound 558], the IC50 was 2.51 nM.

As for `O=C(NCC(c1cnc(C(F)(F)F)nc1)N1CCOCC1)c1c(Cl)ccc2nc(N3CCC4CNCC43)ccc12` (stereo not drawn) [Compound 559], the IC50 is 3.63 nM.

As to `O=C(NCC(c1cnc(C(F)(F)F)nc1)N1CCOCC1)c1c(Cl)ccc2nc(N3CC4CCNC4C3)ccc12` (stereo not drawn) [Compound 560], the IC50 was 4.9 nM.

For `N[C@@H]1CCN(c2ccc3c(C(=O)NCC(c4cnc(C(F)(F)F)nc4)N4CCOCC4)c(Cl)ccc3n2)C1` (stereo partly drawn) [Compound 561], the IC50 is 1.35 nM.

As for `CN[C@@H]1CCN(c2ccc3c(C(=O)NCC(c4cnc(C(F)(F)F)nc4)N4CCOCC4)c(Cl)ccc3n2)C1` (stereo partly drawn) [Compound 562], the IC50 is 4.9 nM.
